Experiments:
Assay in all cases: relative viability (nuclei count vs DMSO), 5 days (fraction); higher = more cells survive
BX 795 + Luminespib = compound: O=C(NCCCNc1nc(Nc2cccc(NC(=O)N3CCCC3)c2)ncc1I)c1cccs1 [BX 795] + CCNC(=O)c1noc(-c2cc(C(C)C)c(O)cc2O)c1-c1ccc(CN2CCOCC2)cc1 [Luminespib] (partner 0.01 µM)
Method in brief: (§1)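 Relative viability was taken as the ratio of nuclei in treated wells to nuclei in vehicle wells. Lung cancer cell lines in 1536-well plates received compounds by pin tool one day after seeding, either one drug alone or a fixed anchor-drug dose plus five library-drug doses (not always all listed) in √10 steps. Nuclei were counted on 4× images after 5 days of treatment, and values are medians of duplicate plates.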

BX 795 + OSI-027 = compound: O=C(NCCCNc1nc(Nc2cccc(NC(=O)N3CCCC3)c2)ncc1I)c1cccs1 [BX 795] + COc1cccc2cc(-c3nc([C@H]4CC[C@H](C(=O)O)CC4)n4ncnc(N)c34)[nH]c12 [OSI-027] (partner 0.5 µM)
Method in brief: as §1

BX 795 + Dasatinib = compound: O=C(NCCCNc1nc(Nc2cccc(NC(=O)N3CCCC3)c2)ncc1I)c1cccs1 [BX 795] + Cc1nc(Nc2ncc(C(=O)Nc3c(C)cccc3Cl)s2)cc(N2CCN(CCO)CC2)n1 [Dasatinib] (partner 0.075 µM)
Method in brief: as §1

BX 795 + Trametinib = compound: O=C(NCCCNc1nc(Nc2cccc(NC(=O)N3CCCC3)c2)ncc1I)c1cccs1 [BX 795] + CC(=O)Nc1cccc(-n2c(=O)n(C3CC3)c(=O)c3c(Nc4ccc(I)cc4F)n(C)c(=O)c(C)c32)c1 [Trametinib] (partner 0.02 µM)
Method in brief: as §1

BX 795 + Phenformin = compound: O=C(NCCCNc1nc(Nc2cccc(NC(=O)N3CCCC3)c2)ncc1I)c1cccs1 [BX 795] + N=C(N)NC(=N)NCCc1ccccc1 [Phenformin] (partner 250 µM)
Method in brief: as §1

| Cell Line | relative viability (BX 795 + Luminespib; first compound 0.04 µM) | relative viability (BX 795 + Luminespib; first compound 0.1265 µM) | relative viability (BX 795 + Luminespib; first compound 0.4 µM) | relative viability (BX 795 + Luminespib; first compound 1.265 µM) | relative viability (BX 795 + OSI-027; first compound 0.04 µM) | relative viability (BX 795 + OSI-027; first compound 0.1265 µM) | relative viability (BX 795 + OSI-027; first compound 0.4 µM) | relative viability (BX 795 + OSI-027; first compound 1.265 µM) | relative viability (BX 795 + Dasatinib; first compound 0.04 µM) | relative viability (BX 795 + Dasatinib; first compound 0.1265 µM) | relative viability (BX 795 + Dasatinib; first compound 0.4 µM) | relative viability (BX 795 + Dasatinib; first compound 1.265 µM) | relative viability (BX 795 + Trametinib; first compound 0.04 µM) | relative viability (BX 795 + Trametinib; first compound 0.1265 µM) | relative viability (BX 795 + Trametinib; first compound 0.4 µM) | relative viability (BX 795 + Trametinib; first compound 1.265 µM) | relative viability (BX 795 + Phenformin; first compound 0.04 µM) | relative viability (BX 795 + Phenformin; first compound 0.1265 µM) | relative viability (BX 795 + Phenformin; first compound 0.4 µM) | relative viability (BX 795 + Phenformin; first compound 1.265 µM) |
| --- | --- | --- | --- | --- | --- | --- | --- | --- | --- | --- | --- | --- | --- | --- | --- | --- | --- | --- | --- | --- |
| 201T | 1.03 | 1.07 | 1.19 | 1.04 | 0.946 | 0.675 | 0.775 | 0.824 | 0.627 | 0.617 | 0.629 | 0.635 | 0.763 | 0.749 | 0.76 | 0.766 | 0.47 | 0.421 | 0.464 | 0.421 |
| A549 |  |  |  |  |  |  |  |  |  |  |  |  |  |  |  |  | 0.23 | 0.15 | 0.271 | 0.112 |
| A-427 | 0.779 | 0.866 | 0.643 | 0.665 | 0.514 | 0.476 | 0.51 | 0.299 | 0.796 | 0.611 | 0.709 | 0.545 | 0.757 | 0.733 | 0.72 | 0.625 | 0.284 | 0.236 | 0.277 | 0.177 |
| ABC-1 | 0.445 | 0.381 | 0.334 | 0.283 | 0.577 | 0.512 | 0.459 | 0.33 | 0.522 | 0.618 | 0.557 | 0.546 |  |  |  |  | 0.263 | 0.265 | 0.262 | 0.195 |
| BEN | 0.458 | 0.432 | 0.351 | 0.312 | 0.264 | 0.297 | 0.257 | 0.26 | 0.334 | 0.315 | 0.367 | 0.299 | 1.12 | 1.12 | 0.933 | 1.13 | 0.235 | 0.278 | 0.245 | 0.21 |
| CAL-12T | 0.534 | 0.488 | 0.194 | 0.181 | 0.726 | 0.834 | 0.669 | 0.186 | 0.521 | 0.387 | 0.281 | 0.129 | 0.273 | 0.298 | 0.322 | 0.24 | 0.599 | 0.591 | 0.447 | 0.212 |
| COR-L23 | 0.576 | 0.573 | 0.71 | 0.197 | 0.843 | 0.769 | 0.82 | 0.501 | 0.533 | 0.496 | 0.382 | 0.298 | 0.622 | 0.628 | 0.509 | 0.344 | 0.391 | 0.411 | 0.431 | 0.234 |
| COR-L 105 | 0.879 | 0.835 | 0.788 | 0.849 | 0.659 | 0.665 | 0.582 | 0.466 | 0.367 | 0.357 | 0.278 | 0.255 | 0.47 | 0.403 | 0.389 | 0.421 | 0.42 | 0.531 | 0.407 | 0.351 |
| ChaGo-K-1 | 0.503 | 0.523 | 0.602 | 0.492 | 0.632 | 0.553 | 0.548 | 0.432 | 0.5 | 0.586 | 0.507 | 0.546 | 0.924 | 0.907 | 0.885 | 0.75 | 0.449 | 0.471 | 0.494 | 0.472 |
